From PMC5563081, “Modulating Protein-Protein Interactions of the Mitotic Polo-like Kinases to Target Mutant KRAS” (Cell Chemical Biology, 2017)
Like-named read-outs stand apart in the source and are kept apart here.

Columns and labels:
[1] = Tolerability and body weight in the xenograft study; type: in vivo, mouse; details: 50 mg/kg oral, mice; no adverse health observations or recorded weight loss
Method: (§1) Tumours were established by sub-cutaneous implantation of 2 x 10^6 HCT116 cells suspended in 50% Matrigel into the flanks of a cohort of mice. When a sufficient number of mice had developed tumours of approximately 100mm3, they were randomly assigned to three groups: Vehicle, 50mg/kg Poloppin-II or 200mg/kg Poloppin-II, with 10 mice per group. Mice were treated orally according to their treatment group once every three days. Tumour volume was measured three times per week with calipers. Body weight was measured three times per week. In addition to mice assigned to tumour volume efficacy arm of the study, 16 mice with established HCT116 xenografts were assigned to either Vehicle or 200mg/kg oral dosing groups, with 8 mice per group. 24 hours after a single dose, mice were euthanised, tumours removed, snap frozen and 30-50microgram of lysates were analysed by Western blotting on 4-12% Bis-Tris acrylamide gels, and transferred using the Invitrogen iBlot dry system. Phospho-Histone H3 was detected using Abcam antibody ab5176, beta-actin with Sigma antibody a5316. […] HRP was visualised with ECL-Plus (GE Healthcare).

phospho-Ser10 histone H3 = experiment: Phospho-histone H3 (Ser10) in xenograft tumour lysates (Western blot); type: in vivo, mouse; details: within 24 hr after single 200mg/kg oral dose, compared with vehicle
Method: as §1

hERG ion channel = hERG ion channel (Homo sapiens, UniProt Q12809); experiment: hERG ion channel activity
[2] = Stability in mouse hepatocytes; type: in vitro ADME
Panc 02.03 = experiment: Cell viability (SRB), Panc 02.03; type: cell-based; details: Homo sapiens, Panc 02.03, 72 h
Method: (§2) SW48 Parental, SW48 G12D, Panc-1, HPAF-II, Panc 02.03 and Panc 05.04 cell lines were seeded overnight at 5000 cells per well in a 96 well plate in recommended media (ATCC). Compounds were added the following day and viability was measured at 72h using the sulforhodamine B (SRB) colorimetric assay as follows. Cells were fixed by replacing media with 1% v/v Trichloroacetic Acid (TCA) (Sigma-Aldrich) at 4°C and incubated for 1h also at 4°C. Wells were washed thoroughly with copious amounts of deionised water before staining with Sulforhodamine B (SRB) (Sigma-Aldrich) solution (0.057% w/v in 1% v/v Acetic Acid (VWR)) for 30 min. Stain was aspirated and wells washed with several changes of 1% v/v Acetic Acid until unbound stain was removed, before air-drying. Bound stain was solubilized with 100μl / well 10mM Tris (pH 8.0) (Trizma Base (121.1) Sigma-Aldrich) with agitation for 10 min. Fluorescence intensity was recorded at Ex540nm / Em590nm using a BMG Pherastar Plus plate reader ([Vichai and Kirtikara, 2006]).
(§3) Pancreatic organoids were extracted and cultured as detailed above ([Boj et al., 2015]). In brief, pancreatic organoids were seeded at 600 cells per well in a 96 well plate and allowed to grow for 7 days with media replenishment on the 3rd day. Full-grown organoids were then treated with compounds for 72h and viability determined using CellTitre Glo 3D assay (Promega). For viability assays with c-MET siRNA, cells were reverse transfected in a 6 cm dish using Dharmafect 1 (GE Dharmacon) per manufacturer’s instructions. On the following day, cells were trypsinised and plated onto 96 well plates or 6 well plates. The 96 well plates were treated with a dose range of compounds or DMSO, and viability was determined via SRB colorimetric assay. […]
(§4) Cells were reverse-transfected with 50nM (SW48 parental, SW48 KRAS G12D and Panc-1) or 25nM (HeLa Flp-In T-REx parental cells) siRNA using Dharmafect (GE Dharmacon) as manufacturer’s recommendations. […] Viability was assessed after 72 hrs, with the SRB colorimetric assay. Knockdown efficiencies were determined by Western blot or RT-qPCR. […]

Panc 05.04 = experiment: Cell viability (SRB), Panc 05.04; type: cell-based; details: Homo sapiens, Panc 05.04, 72 h
Method: as §2, §3, §4

HPAF II = experiment: Cell viability (SRB), HPAF II; type: cell-based; details: Homo sapiens, 72 h
Method: as §2, with “Stain was aspirated and wells washed with several changes of 1% v/v Acetic Acid until unbound stain was removed, before air-drying. Bound stain was solubilized with 100μl / well 10mM Tris (pH 8.0) (Trizma Base (121.1) Sigma-Aldrich) with agitation for 10 min.” left out
Pancreatic organoids were extracted and cultured as detailed above ([Boj et al., 2015]). […] Full-grown organoids were then treated with compounds for 72h and viability determined using CellTitre Glo 3D assay (Promega). […] The 96 well plates were treated with a dose range of compounds or DMSO, and viability was determined via SRB colorimetric assay. […]
Cells were reverse-transfected with 50nM (SW48 parental, SW48 KRAS G12D and Panc-1) or 25nM (HeLa Flp-In T-REx parental cells) siRNA using Dharmafect (GE Dharmacon) as manufacturer’s recommendations. […] Viability was assessed after 72 hrs, with the SRB colorimetric assay. […]

[3] = tested on: HCT116 BI 2536-Res. Clones; experiment: Viability of BI 2536-resistant HCT116 clones; type: cell-based, human
Method: Viability is represented as percentage survival normalised to DMSO control. […] PCR reactions were carried out using Amplitaq Gold polymerase (Applied Biosystems N8080241) with a 25-cycle programme. […] Prepared samples were submitted for next generation sequencing using MiSeq Nano run with Nextera XT library preparation. Sequencing and subsequent bioinformatics were performed by Cambridge Genomic Services (University Of Cambridge).

human cell lines = experiment: Dose-dependent mitotic arrest (Figure 1F); type: cell-based
Method: Cells were plated at 10 000/well in 96-well plates and incubated overnight. The following day compound stocks in DMSO were diluted in medium then added to cells with a maximum final DMSO concentration on cells of 0.2%. Cells were incubated with compound for 24 h then fixed in 3.7% formaldeyde. Cells were permeabilised with 0.1% Triton X-100 then incubated with anti-phospho-histone H3 (Ser10) antibody (Abcam ab5176). The cells were washed with PBS then incubated with AlexaFluor 488 labelled goat anti-rabbit IgG (Invitrogen A11034) in the presence of 4ug/ml Hoechst 33342 (Invitrogen H3570). Cells were washed in PBS then imaged on an Arrayscan VTi HCS instrument (Thermo Fisher) using the Target Activation V4 Bioapplication. A user-defined threshold was applied to identify mitotic cells based on the intensity of phospho-histone H3 staining.

Chain of hERG ion channel (Q12809 whole entry): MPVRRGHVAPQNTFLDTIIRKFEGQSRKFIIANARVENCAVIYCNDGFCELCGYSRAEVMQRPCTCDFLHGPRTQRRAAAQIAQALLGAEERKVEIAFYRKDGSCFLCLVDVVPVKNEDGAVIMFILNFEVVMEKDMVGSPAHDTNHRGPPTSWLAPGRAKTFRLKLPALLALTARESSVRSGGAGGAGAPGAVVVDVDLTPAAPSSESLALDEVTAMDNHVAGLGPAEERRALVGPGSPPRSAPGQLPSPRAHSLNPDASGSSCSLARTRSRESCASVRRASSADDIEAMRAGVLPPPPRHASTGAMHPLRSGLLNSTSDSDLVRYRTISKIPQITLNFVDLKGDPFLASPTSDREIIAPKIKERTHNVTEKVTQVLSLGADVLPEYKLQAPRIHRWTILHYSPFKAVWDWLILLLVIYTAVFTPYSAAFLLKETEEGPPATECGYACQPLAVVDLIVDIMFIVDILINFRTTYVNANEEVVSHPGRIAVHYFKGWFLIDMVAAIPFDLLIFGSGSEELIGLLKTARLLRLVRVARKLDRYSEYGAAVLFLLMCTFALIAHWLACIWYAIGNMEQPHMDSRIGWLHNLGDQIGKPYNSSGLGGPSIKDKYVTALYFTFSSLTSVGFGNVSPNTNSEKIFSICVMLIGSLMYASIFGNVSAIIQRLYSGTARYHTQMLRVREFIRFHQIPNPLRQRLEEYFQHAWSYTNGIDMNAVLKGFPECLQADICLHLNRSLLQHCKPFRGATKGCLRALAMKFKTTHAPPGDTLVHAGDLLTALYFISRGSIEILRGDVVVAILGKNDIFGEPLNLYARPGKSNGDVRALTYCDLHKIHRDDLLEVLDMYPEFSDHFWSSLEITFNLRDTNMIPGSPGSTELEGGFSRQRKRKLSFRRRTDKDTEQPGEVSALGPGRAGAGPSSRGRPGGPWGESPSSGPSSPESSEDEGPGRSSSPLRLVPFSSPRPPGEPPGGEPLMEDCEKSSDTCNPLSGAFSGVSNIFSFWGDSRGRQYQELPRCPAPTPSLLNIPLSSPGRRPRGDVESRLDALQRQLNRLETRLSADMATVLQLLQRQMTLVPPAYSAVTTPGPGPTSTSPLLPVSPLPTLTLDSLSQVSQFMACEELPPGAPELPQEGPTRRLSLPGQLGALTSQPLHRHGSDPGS

Row | Compound | tolerability during the study [1] | phospho-Ser10 histone H3 expression in xenografts (phospho-Ser10 histone H3) | activity against the hERG ion channel (hERG ion channel) | half-life [2] | hepatocyte CLint [2] | EC50 (Panc 02.03; read-out: EC50, % survival, Panc 02.03, All Stars control siRNA, 72 h) | EC50 (Panc 02.03; read-out: EC50, % survival, Panc 02.03, siMET, 72 h) | EC50 (Panc 05.04; read-out: EC50, % survival, Panc 05.04, All Stars control siRNA, 72 h) | EC50 (Panc 05.04; read-out: EC50, % survival, Panc 05.04, siMET, 72 h) | EC50 (HPAF II; read-out: EC50, % survival, HPAF II, All Stars control siRNA, 72 h) | EC50 (HPAF II; read-out: EC50, % survival, HPAF II, siMET, 72 h) | GI50 ([3]; BI2536-Res. (Mean), 72 h) | GI50 ([3]; Homo sapiens, HCT-116, 72 h) | EC50 (human cell lines)
1 | CN(C)CCNC(=O)c1ccc(-c2ccc(-c3ccc(Cl)cc3)n2-c2ccccc2C(F)(F)F)cc1 [Poloppin-II] | well tolerated | increased levels | inactive | 1.28 h | 18 µL/min/1e6 cells |  |  |  |  |  |  |  |  | 
2 | O=C(O)CCc1ccc(-c2ccc(Br)cc2)n1-c1ccccc1C(F)(F)F [Poloppin] |  |  |  |  |  | 47.1 ± 1.03 µM | 8.7 ± 1.16 µM | 23.8 ± 1.08 µM | 11.6 ± 1.07 µM | 12.4 ± 1.08 µM | 5.6 ± 1.05 µM | retain sensitivity | 7.7 µM | 29.9 ± 1.12 µM
